{
  "source": "patent US20210275518A1",
  "about": "“METHODS OF USING REBASTINIB IN THE TREATMENT OF DISORDERS” (Deciphera Pharmaceuticals, LLC, priority 2020, published 2021)",
  "key": {"[1]": {"tested_on": "advanced or metastatic solid tumors", "experiment": "Phase 1b/2 study of rebastinib in combination with paclitaxel (Part 1; overall safety)", "format": "in vivo, human", "source_text": "(§1) This is an open-label Phase 1b/2 multicenter study in patients with advanced or metastatic solid tumors where paclitaxel may be considered appropriate treatment. Rebastinib will be administered in combination with paclitaxel in repeated 28-day cycles to primarily assess the safety, tolerability and preliminary efficacy of the combination. Adverse events (AEs) will be assessed, and laboratory values, vital sign measurements, electrocardiograms (ECGs), ophthalmologic examinations, physical examinations and Eastern Cooperative Oncology Group (ECOG) Performance Status (PS) will be obtained to evaluate the safety and tolerability of rebastinib when administered in combination with paclitaxel. Pharmacokinetic (PK) and pharmacodynamic (PD) samples will be collected at pre-specified time points.\nThe study consists of two parts (Part 1 and Part 2). In Part 1, patients were assigned to one of two pre-defined dose levels of rebastinib (50 or 100 mg BID) in combination with paclitaxel administered by intravenous (IV) infusion at 80 mg/m^2. Paclitaxel is to be administered by IV infusion at 80 mg/m^2 over approximately 60 minutes on Day 1, Day 8 and Day 15 of repeated 28-day cycles. Rebastinib is to be administered orally prior to the paclitaxel infusion.\nEach arm was planned to enroll at least 12 evaluable patients. Additionally, if rebastinib at 100 mg BID was deemed unsafe, an additional arm dosing at 75 mg BID of rebastinib in combination with paclitaxel may be initiated. Up to 36 evaluable patients were dosed in Part 1. Safety was continuously monitored, and any arm may be terminated early if deemed unsafe by the Sponsor.\nSafety and tolerability, PK and PD, and preliminary efficacy data obtained in Part 1 was used to determine the RP2D. Data for at least 12 evaluable patients through Cycle 1 must be available in an arm to declare the dose as the RP2D. Patients must receive ≥80% of planned doses of rebastinib and paclitaxel in Cycle 1 to be considered as evaluable. Enrollment of patients was paused for determination of the RP2D prior to initiation of Part 2. An RP2D was chosen by the Sponsor in consultation with the Investigators."}, "[2]": {"experiment": "Pharmacokinetics of rebastinib given with paclitaxel (Part 1)", "format": "in vivo, human", "details": "50 mg BID and 100 mg BID in combination with paclitaxel", "source_text": "as §1"}, "[3]": {"tested_on": "inflammatory breast cancer", "experiment": "Phase 1b/2 rebastinib + paclitaxel, Part 2 Cohort 2 (RECIST v1.1)", "format": "in vivo, human", "source_text": "(§2) Upon determination of the RP2D, Part 2 is initiated to dose up to 165 evaluable patients using the RP2D across five indication-specific cohorts. A Simon's two-stage design is applied to Part 2 to further evaluate the safety, tolerability, and preliminary efficacy of rebastinib in combination with paclitaxel in triple-negative breast (Cohort 1), inflammatory breast (Cohort 2), ovarian (Cohort 3), endometrial adenocarcinoma (Cohort 4), and gynecologic carcinosarcoma (Cohort 5) cancers. Each cohort initially enrolls up to 18 evaluable patients in the first stage. Patients must receive at least 1 dose of the combination and have 1 post-baseline assessment (including assessment of clinical progression) or be discontinued prior to the postbaseline disease assessment due to an AE at least possibly related to rebastinib, to be considered evaluable. Tumor response is assessed according to Response Evaluation Criteria in Solid Tumors (RECIST) Version 1.1. The decision to enroll patients beyond the first stage is based on response assessments obtained after the first post-dose response assessment of the last patient enrolled in the first stage of a cohort. […] If ≤4 responses are seen in a cohort, the cohort will be terminated. If >4 responses are seen prior to the last evaluable patient in the first stage, expanding the cohort may be triggered earlier. Enrollment in each cohort will pause between the first and second stage of the Simon two-stage for evaluation of response. Patients will receive study treatment until they develop progressive disease, experience unacceptable toxicity, or withdraw consent."}, "[4]": {"tested_on": "gynecologic carcinosarcoma", "experiment": "Phase 1b/2 rebastinib + paclitaxel, Part 2 Cohort 5 (RECIST v1.1)", "format": "in vivo, human", "details": "Cycle 5, Day 1", "source_text": "as §2, with “Enrollment in each cohort will pause between the first and second stage of the Simon two-stage for evaluation of response. Patients will receive study treatment until they develop progressive disease, experience unacceptable toxicity, or withdraw consent.” left out"}, "[5]": {"experiment": "Pharmacokinetics of rebastinib given with carboplatin", "format": "in vivo", "details": "time point 2; 50 and 100 mg BID with carboplatin", "protocol": "This is a Phase 1b/2 study where patients with mesothelioma are administered rebastinib in combination with carboplatin. The study follows a Simon 2-stage design at the MTD and R2PD. Safety and tolerability, PK and PD, and preliminary efficacy data was used to determine the RP2D. Upon determination of the RP2D or MTD, the Simon 2-stage design is initiated to dose evaluable patients using the RP2D or MTD across three indication-specific cohorts (breast cancer, ovarian cancer, and mesothelioma)."}},
  "data": [
    {"smiles": "CNC(=O)c1cc(Oc2ccc(NC(=O)Nc3cc(C(C)(C)C)nn3-c3ccc4ncccc4c3)c(F)c2)ccn1", "note": "[rebastinib]", "values": [
      {"measurement": "Partial response, patients", "setting": "[1]; Part 1, rebastinib 50 mg BID with weekly paclitaxel 80 mg/m^2", "value": 5, "unit": "patients"},
      {"measurement": "Partial response, patients", "setting": "[1]; Part 1, rebastinib 100 mg BID with weekly paclitaxel 80 mg/m^2", "value": 3, "unit": "patients"},
      {"measurement": "Partial response, patients total", "setting": "[1]; Part 1, rebastinib 50 and 100 mg BID with weekly paclitaxel 80 mg/m^2", "value": 8, "unit": "patients"},
      {"measurement": "Tolerability", "setting": "[1]; Part 1, rebastinib 50 and 100 mg BID with weekly paclitaxel 80 mg/m^2, patients with advanced tumors", "value": "generally well tolerated"},
      {"measurement": "Muscular weakness", "setting": "[1]; rebastinib 100 mg BID with weekly paclitaxel 80 mg/m^2, required dose reduction to 50 mg BID", "value": "high incidence"},
      {"measurement": "Exposure to rebastinib", "setting": "[2]", "value": "dose proportional"},
      {"measurement": "Patients with partial response", "setting": "[3]; Cycle 3, Day 1", "value": "two"},
      {"measurement": "Patients with stable disease", "setting": "[3]; Cycle 3, Day 1", "value": "one"},
      {"measurement": "Patients with partial response", "setting": "[3]; Cycle 3, Day 1, Cycle 5, Day 1, and Cycle 8, Day 1", "value": "one"},
      {"measurement": "Patients with stable disease", "setting": "[3]; both Cycle 3, Day 1 and Cycle 5, Day 1", "value": "one"},
      {"measurement": "Patients with partial response", "setting": "[4]", "value": "one"},
      {"measurement": "Rebastinib exposure", "setting": "[5]", "value": "dose proportional"}
    ]}
  ]
}
